US11160770B2, “Compounds, compositions and methods for treating oxidative DNA damage disorders” (Indiana University Research and Technology Corporation, priority 2011, dated 2021)

Columns and labels:
[1] = system: sensory neuronal cultures; type: cell-based, rat
Protocol: EXAMPLE. Cell Cultures. Neuronal cultures were prepared from adult male (150-175 g) Sprague-Dawley rats (Harlan, Indianapolis, Ind.) as described in the published literature. Briefly, hippocampal cells were dissociated using papain and mechanical agitation and separated by gradient centrifugation. The pellet of cells from a discontinuous gradient of Optiprep in L-15 media was washed then resuspended in 1 mL of growth media consisting of Neurobasal Medium supplemented with 0.5 mM L-glutamine, 2% B-27 Supplement minus AO, 50 mg/mL Penicillin-Streptomycin, and 5 ng/mL of Basic Fibroblast Growth Factor (BFGF). Approximately 60,000 cells were plated onto poly-D-lysine and laminin coated plates and grown for 6-14 days in 5% CO2 at 37° C. Growth medium was changed every other day. For sensory neuronal culture, cells were dissociated using collagenase and mechanical dissociation. Approximately 30,000 DRG cells were plated into each well of 12 well culture plates or onto Lab-Tek chamber slides all precoated with poly-D-lysine and laminin. The sensory neurons were maintained in F-12 media supplemented with 10% horse serum, 2 mM glutamine, 100 μg/mL normocin, 50 μg/mL penicillin, 50 μg/mL streptomycin, 50 μM 5-fluoro-2′-deoxyuridine, 150 μM uridine, and 30 ng/mL NGF in 3% CO2 at 37° C. Growth medium was changed every other day and the cells were used after 11-13 days of culture.
EXAMPLE. Assay Methods. Sensory neuronal cultures grown on Lab-Tek microscope chamber slides were processed for immunofluorescence as previously published using a peripherin antibody (1:500) and HA antibody (1:500)[28]. Images were collected in red (peripherin), green (HA), and bright-field modes. A Zeiss LSM offline browser (R4.0: Carl Zeiss Inc.; Thornwood, N.Y.) was used to determine co-localization of peripherin and HA. For trypan blue exculsion, equal volume of 0.4% (w/v) Trypan blue to cell suspension were combined, mixed and scored under phase contrast microscope. […]
EXAMPLE. […] The mean % of cells surviving 24 h after exposure to IR as measured by trypan blue exclusion was evaluated. […]

[2] = system: cisplatin treated neuronal cells; assay: Trypan blue cell survival following cisplatin treatment; type: cell-based, rat; settings: E3330 20 μM; cisplatin 0-100 mM; trypan blue on days 11, 12, 13
Description: EXAMPLE. Assay Methods. Sensory neuronal cultures grown on Lab-Tek microscope chamber slides were processed for immunofluorescence as previously published using a peripherin antibody (1:500) and HA antibody (1:500)[28]. Images were collected in red (peripherin), green (HA), and bright-field modes. A Zeiss LSM offline browser (R4.0: Carl Zeiss Inc.; Thornwood, N.Y.) was used to determine co-localization of peripherin and HA. For trypan blue exculsion, equal volume of 0.4% (w/v) Trypan blue to cell suspension were combined, mixed and scored under phase contrast microscope. Dead cells were those that take up the trypan blue and stain blue, whereas the live cells have yellow nuclei.
Referring to FIG. 2, cells were harvested on day 1. The corresponding siRNA (100 nM) was added on day 3, and removed on day 5. E3330 (20 μM) was dosed on day 7 and remained in the cultures for 2 days. E3330 (20 μM) and/or cisplatin ([…]) are each dosed day 10 with fresh media. Trypan blue assay is performed on days 11, 12, and 13. CGRP release assay is performed on day 11. N=3, *p<0.05.

DRG cells [3] = assay: CGRP release from DRG cells following cisplatin treatment; type: cell-based, rat; settings: E3330 20 μM pretreatment 3 days, then cisplatin 10 μM 24 hours
Protocol: EXAMPLE. CGRP. Release studies were performed on cells. Briefly, neuronal cultures were washed once with HEPES buffer consisting of 25 HEPES, 135 NaCl, 3.5 KCl, 2.5 CaCl2, 1 MgCl2, 3.3 d-glucose (each in mmol/L), and 0.1% bovine serum albumin (pH 7.4), maintained at 37° C., and then incubated for successive 10-min intervals with 0.4 mL of the same buffer in the absence or presence of drugs. Basal or resting release was determined by exposing the cells to HEPES buffer alone, whereas stimulated release was determined by exposing the cultures to 30 nmol/L capsaicin. Cells then were reexposed to HEPES buffer without drugs for one or two 10-min incubations to reestablish resting release. During incubations, the cells were maintained in at 37° C. After each incubation, the buffer was removed to measure the amount of CGRP using RIAs. […] Total content is determined by adding the total amount released in all incubations to the amount remaining in the cells. The release data is calculated as a percentage of the total peptide content in the cells. Because CGRP was measured by RIA, results are expressed as CGRP-like immunoreactivity (iCGRP). […]
EXAMPLE. […] Basal levels of CGRP without induction and cumulative total basal are both monitored, indicating correct functioning of the assay.

DRG cells [4] = assay: FACS apoptosis assay in cisplatin treated DRG cells; type: cell-based; settings: cisplatin 50 μM, E3330 50 μM co-treatment, 3 days
Protocol: EXAMPLE. DRG cells are treated with cisplatin (50 μM), with and without co-treatment with E3330 (50 μM), for 3 days. The cells are evaluated by FACS assay and compared to control.

Question: Which results are given for `CCCCCCCCC/C(=C\C1=C(C)C(=O)C(OC)=C(OC)C1=O)C(=O)O` [Example 28]?
Answer: cell viability (effect on IR-induced cell death) ([1]; 20 μM E3330, 3 days prior to and throughout 3 days of radiation (10 Gy/day), 24 h after last dose): effectively blocks IR's effects; cell viability ([1]; male, Sprague-Dawley, rat, 20 μM): 51±3%; cell viability (% cells surviving, trypan blue exclusion) ([1]; male, Sprague-Dawley, rat, 6 days, 10 μM): 81±3%; cell death in cisplatin treated neuronal cells [2]: attenuate cell death; total content CGRP (DRG cells [3]; FIG. 3(B)): no statistical significance difference; capsaicin-induced CGRP release from DRG cells after cisplatin (DRG cells [3]; capsaicin 30 nM): recovery of CGRP release; apoptosis arising from cisplatin treatment (DRG cells [4]): decrease apoptosis
